Earlier results, collected in patent publication US20070212431A1, “Cream for treatment of skin injured by the sun” (priority 2001, published 2007).

Columns and labels:
[1] = system: photodamaged skin; conditions: controlled studies (Q-10); open uncontrolled clinical study (lipoic acid)
[2] = topical application to the skin
[3] = applied to the skin in ethyl alcohol solution, after penetrating the horny layer

| Compound | effect on photodamaged skin [1] | time until found in the dermis [2] [h] | share reaching the dermis [3] [%] | share reaching the living part of epidermis [3] |
| --- | --- | --- | --- | --- |
| O=C(O)CCCCC1CCSS1 (racemic) [lipoic acid, d,l-α-lipoic acid] | shown to have an effect on photodamaged skin to a certain extent | ≤ 4 |  |  |
| COC1=C(OC)C(=O)C(C/C=C(\C)CC/C=C(\C)CC/C=C(\C)CC/C=C(\C)CC/C=C(\C)CC/C=C(\C)CC/C=C(\C)CC/C=C(\C)CC/C=C(\C)CCC=C(C)C)=C(C)C1=O [Q-10, coenzyme Q-10] | to some extent has been shown to have an effect |  | ~2 | about 20% |
